# Test: Stability in C57BL/6J mouse microsomes
# Assay type: ADME, Microsome
row,Stability [%],Compound
1,50,C[S+]([O-])c1ccc(C(CC2CCCC2)c2cc3cccnc3[nH]2)cc1Cl (stereo in doubt; 16a)
2,40,C[S+]([O-])c1ccc(C(CC2CCCC2)c2cc3cccnc3[nH]2)cc1Cl (stereo in doubt; 16c)
3,85,CS(=O)(=O)c1ccc([C@@H](C[C@H]2CCC(=O)C2)C(=O)Nc2cnccn2)cc1Cl [PIRAGLIATIN]

# Source: ChEMBL document CHEMBL3763030, “Structure-Activity Relationship of Azaindole-Based Glucokinase Activators” (J Med Chem, 2016)
